Laboratory results taken from patent publication US8785488B2 (Exelixis Patent Company LLC, priority 2009, dated 2014).

Key:
[1] = target: T1, human TGR5 (h-TGR5) (Homo sapiens, UniProt Q8TDU6); test: TGR5/CRE-Luciferiase Assay (HEK 293 hTGR5/CRE-Luc cells); assay type: cell-based; conditions: h-TGR5 CRE-Luc EC50, Table 1; read-out: CRE-Luc (EC50)
T1 construct: expressed in transfected cells
T1 sequence (Q8TDU6 1-330): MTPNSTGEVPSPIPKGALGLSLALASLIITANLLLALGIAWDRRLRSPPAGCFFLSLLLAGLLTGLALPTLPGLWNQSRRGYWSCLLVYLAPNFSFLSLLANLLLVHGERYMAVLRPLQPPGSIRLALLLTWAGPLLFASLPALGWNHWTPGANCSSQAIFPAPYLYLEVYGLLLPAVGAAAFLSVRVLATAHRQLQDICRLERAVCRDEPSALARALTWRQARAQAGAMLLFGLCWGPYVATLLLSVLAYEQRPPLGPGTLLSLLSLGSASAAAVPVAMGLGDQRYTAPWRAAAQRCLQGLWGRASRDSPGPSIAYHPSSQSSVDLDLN
Method in brief: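 HEK293 cells stably carrying hTGR5 and a CRE-luciferase reporter were exposed to serially diluted compounds (diluted in DMEM with 5% DMSO) for 6 h. Cells were then lysed in luciferase buffer, luminescence was read, and EC50 values were derived from dose-response curves.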

[2] = target: T2, h-TGR5 (Homo sapiens, UniProt Q8TDU6); test: TGR5 cAMP Assay using Cisbio cAMP Dynamic2 htrf kit (hTGR5CRE-luc HEK 293 cells); assay type: cell-based; conditions: h-TGR5 cAMP EC50, Table 1; read-out: cAMP (EC50)
T2 construct: expressed in transfected cells
T2 sequence (Q8TDU6 1-330): T1 sequence (Q8TDU6 1-330)
Method in brief: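 […], 4000 hTGR5CRE-luc HEK 293 cells per well, with 0.5 mM IBMX and d2-cAMP, were incubated 30 min at room temperature with compounds in 8-point half-log series, in quadruplicate.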

EC50 [1] [nM]	EC50 [2] [nM]	Compound
< 100	100 to 1000	CC(C)(c1ccc(Cl)c(Cl)c1)c1cnc(SCc2c(F)cc(C(=O)O)cc2F)n1-c1ccc(F)cc1 [4-[({5-[1-(3,4-dichlorophenyl)-1-methylethyl]-1-(4-fluorophenyl)-1H-imidazol-2-yl}thio)methyl]-3,5-difluorobenzoic acid]
100 to 1000	100 to 1000	CC(C)(c1ccc(Cl)c(Cl)c1)c1cnc(SCc2ccc(C(=O)NCCc3c[nH]cn3)cc2F)n1-c1ccc(F)cc1 [4-[({5-[1-(3,4-dichlorophenyl)-1-methylethyl]-1-(4-fluorophenyl)-1H-imidazol-2-yl}thio)methyl]-3-fluoro-N-[2-(1H-imidazol-4-yl)ethyl]benzamide]
100 to 1000	100 to 1000	CC(C)(c1ccc(Cl)c(Cl)c1)c1cnc(SCc2ccc(S(N)(=O)=O)cc2F)n1-c1ccc(F)cc1 [4-[({5-[1-(3,4-dichlorophenyl)-1-methylethyl]-1-(4-fluorophenyl)-1H-imidazol-2-yl}thio)methyl]-3-fluorobenzenesulfonamide]
100 to 1000	100 to 1000	CC(C)(c1ccc(Cl)c(Cl)c1)c1cnc(SCc2ccc(C(=O)O)cc2F)n1-c1ccc(F)cc1 [4-[({5-[1-(3,4-dichlorophenyl)-1-methylethyl]-1-(4-fluorophenyl)-1H-imidazol-2-yl}thio)methyl]-3-fluorobenzoic acid]
< 100	100 to 1000	CC(C)(c1ccc(Cl)c(Cl)c1)c1cnc(SCc2c(F)cc(C(=O)O)cc2F)n1-c1ccc(F)c(C(F)F)c1 [4-[({5-[1-(3,4-dichlorophenyl)-1-methylethyl]-1-[3-(difluoromethyl)-4-fluorophenyl]-1H-imidazol-2-yl}thio)methyl]-3,5-difluorobenzoic acid]
< 100	100 to 1000	COc1cc(-n2c(C(C)(C)c3ccc(Cl)c(Cl)c3)cnc2SCC2CCN(C(=O)NC(C)C)CC2)ccc1F [4-[({5-[1-(3,4-dichlorophenyl)-1-methylethyl]-1-[4-fluoro-3-(methyloxy)phenyl]-1H-imidazol-2-yl}thio)methyl]-N-(1-methylethyl)piperidine-1-carboxamide]
< 100	100 to 1000	CC(C)(c1ccc(F)c(F)c1)c1cnc(SCC2CCN(S(C)(=O)=O)CC2)n1-c1ccc(F)cc1 [4-[({5-[1-(3,4-difluorophenyl)-1-methylethyl]-1-(4-fluorophenyl)-1H-imidazol-2-yl}thio)methyl]-1-(methylsulfonyl)piperidine]
< 100	< 100	CC(C)(c1ccc2onc(N)c2c1)c1cnc(SCc2c(F)cc(C(=O)O)cc2F)n1-c1ccc(F)cc1 [4-[({5-[1-(3-amino-1,2-benzisoxazol-5-yl)-1-methylethyl]-1-(4-fluorophenyl)-1H-imidazol-2-yl}thio)methyl]-3,5-difluorobenzoic acid]
< 100	< 100	COc1cc(-n2c(C(C)(C)c3ccc4onc(N)c4c3)cnc2SCc2c(F)cc(C(=O)O)cc2F)ccc1F [4-[({5-[1-(3-amino-1,2-benzisoxazol-5-yl)-1-methylethyl]-1-[4-fluoro-3-(methyloxy)phenyl]-1H-imidazol-2-yl}thio)methyl]-3,5-difluorobenzoic acid]
< 100	< 100	CC(C)(c1ccc(F)c(C#N)c1)c1cnc(SCc2c(F)cc(C(=O)O)cc2F)n1-c1ccc(F)cc1 [4-[({5-[1-(3-cyano-4-fluorophenyl)-1-methylethyl]-1-(4-fluorophenyl)-1H-imidazol-2-yl}thio)methyl]-3,5-difluorobenzoic acid]
< 100	< 100	COc1cc(-n2c(C(C)(C)c3ccc(F)c(C#N)c3)cnc2SCc2c(F)cc(C(=O)O)cc2F)ccc1F [4-[({5-[1-(3-cyano-4-fluorophenyl)-1-methylethyl]-1-[4-fluoro-3-(methyloxy)phenyl]-1H-imidazol-2-yl}thio)methyl]-3,5-difluorobenzoic acid]
100 to 1000	100 to 1000	CC(C)(c1ccc(F)c(F)c1)c1cnc(SCc2cc(C(=O)O)ccc2Cl)n1-c1ccc(F)cc1 [4-chloro-3-[({5-[1-(3,4-difluorophenyl)-1-methylethyl]-1-(4-fluorophenyl)-1H-imidazol-2-yl}thio)methyl]benzoic acid]

Second part, the molecule before the results:

Compound	EC50 [1] [nM]	EC50 [2] [nM]
CC(C)(c1ccc(Cl)c(Cl)c1)c1cnc(SCc2c(F)cc(C(N)=O)cc2F)n1-c1ccc(F)cc1 [4-[({5-[1-(3,4-dichlorophenyl)-1-methylethyl]-1-(4-fluorophenyl)-1H-imidazol-2-yl}thio)methyl]-3,5-difluorobenzamide]	100 to 1000	100 to 1000
CC(C)(O)CNC(=O)c1ccc(CSc2ncc(C(C)(C)c3ccc(Cl)c(Cl)c3)n2-c2ccc(F)cc2)c(F)c1 [4-[({5-[1-(3,4-dichlorophenyl)-1-methylethyl]-1-(4-fluorophenyl)-1H-imidazol-2-yl}thio)methyl]-3-fluoro-N-(2-hydroxy-2-methylpropyl)benzamide]	100 to 1000	100 to 1000
COc1cc(-n2c(C(C)(C)c3ccc(Cl)c(Cl)c3)cnc2SCC2CCN(c3nnn[nH]3)CC2)ccc1F [4-[({5-[1-(3,4-dichlorophenyl)-1-methylethyl]-1-[4-fluoro-3-(methyloxy)phenyl]-1H-imidazol-2-yl}thio)methyl]-1-(1H-tetrazol-5-yl)piperidine]	< 100	< 100
COc1cc(-n2c(C(C)(C)c3ccc(Cl)c(Cl)c3)cnc2SCc2c(F)cc(C(=O)O)cc2F)ccc1F [4-[({5-[1-(3,4-dichlorophenyl)-1-methylethyl]-1-[4-fluoro-3-(methyloxy)phenyl]-1H-imidazol-2-yl}thio)methyl]-3,5-difluorobenzoic acid]	< 100	< 100
O=C(O)c1cc(F)c(CSc2ncc(C3(c4ccc(Cl)c(Cl)c4)CC3)n2-c2ccc(F)cc2)c(F)c1 [4-[({5-[1-(3,4-dichlorophenyl)cyclopropyl]-1-(4-fluorophenyl)-1H-imidazol-2-yl}thio)methyl]-3,5-difluorobenzoic acid]	100 to 1000	100 to 1000
CC(C)(c1ccc(F)c(F)c1)c1cnc(SCC2CCN(C(=O)NN3CCCC3)CC2)n1-c1ccc(F)cc1 [4-[({5-[1-(3,4-difluorophenyl)-1-methylethyl]-1-(4-fluorophenyl)-1H-imidazol-2-yl}thio)methyl]-N-pyrrolidin-1-ylpiperidine-1-carboxamide]	100 to 1000	100 to 1000
COc1cc(C(C)(C)c2cnc(SCc3cc(C(=O)O)ccc3Cl)n2-c2ccc(F)cc2)ccc1Cl [4-chloro-3-({[5-{1-[4-chloro-3-(methyloxy)phenyl]-1-methylethyl}-1-(4-fluorophenyl)-1H-imidazol-2-yl]thio}methyl)benzoic acid]	< 100	< 100
CC(C)(c1ccc(Cl)c(Cl)c1)c1cnc(SCc2cc(C(=O)O)ccc2Cl)n1-c1ccc(F)cc1 [4-chloro-3-[({5-[1-(3,4-dichlorophenyl)-1-methylethyl]-1-(4-fluorophenyl)-1H-imidazol-2-yl}thio)methyl]benzoic acid]	100 to 1000	100 to 1000
COc1cc(C(C)(C)c2cnc(SCc3cc(S(N)(=O)=O)c(F)cc3Cl)n2-c2ccc(F)cc2)ccc1Cl [4-chloro-5-({[5-{1-[4-chloro-3-(methyloxy)phenyl]-1-methylethyl}-1-(4-fluorophenyl)-1H-imidazol-2-yl]thio}methyl)-2-fluorobenzenesulfonamide]	< 100	< 100
